{"source": "patent US9080220B2", "about": "(priority 2006, dated 2015)", "system": "inflammatory hyperalgesia induced by carrageenan on a rat's paw", "design": "species or system rat (male Sprague Dawley)", "settings": "in vivo, ip", "note": "Where two headings read alike, the source gives them in different places."}
{"compound": "CN1CC[C@]23c4c5ccc(O)c4O[C@H]2[C@@H](O)C=C[C@H]3[C@H]1C5", "note": "[morphine]", "values": [{"measurement": "protection against hyperalgesia induced by carrageenan", "setting": "0.3 mg/kg", "value": "does not induce statistically significant protection"}, {"measurement": "increase of pain threshold following a mechanical stimulus applied to the rats' paws", "setting": "1 mg/kg", "value": 65, "unit": "%"}, {"measurement": "increase of pain threshold following a mechanical stimulus applied to the rats' paws", "setting": "3 mg/kg", "value": 97, "unit": "%"}]}
